# Target: Human VPS34 (Homo sapiens (Human), UniProt Q8NEB9)
# Experiment: Human VPS34 enzyme assay (Adapta TR-FRET)
# Assay type: biochemical
# Conditions: compound concentration 1.11 μM; read-out: Percent Inhibition
# Human VPS34, sequence (Q8NEB9 whole entry): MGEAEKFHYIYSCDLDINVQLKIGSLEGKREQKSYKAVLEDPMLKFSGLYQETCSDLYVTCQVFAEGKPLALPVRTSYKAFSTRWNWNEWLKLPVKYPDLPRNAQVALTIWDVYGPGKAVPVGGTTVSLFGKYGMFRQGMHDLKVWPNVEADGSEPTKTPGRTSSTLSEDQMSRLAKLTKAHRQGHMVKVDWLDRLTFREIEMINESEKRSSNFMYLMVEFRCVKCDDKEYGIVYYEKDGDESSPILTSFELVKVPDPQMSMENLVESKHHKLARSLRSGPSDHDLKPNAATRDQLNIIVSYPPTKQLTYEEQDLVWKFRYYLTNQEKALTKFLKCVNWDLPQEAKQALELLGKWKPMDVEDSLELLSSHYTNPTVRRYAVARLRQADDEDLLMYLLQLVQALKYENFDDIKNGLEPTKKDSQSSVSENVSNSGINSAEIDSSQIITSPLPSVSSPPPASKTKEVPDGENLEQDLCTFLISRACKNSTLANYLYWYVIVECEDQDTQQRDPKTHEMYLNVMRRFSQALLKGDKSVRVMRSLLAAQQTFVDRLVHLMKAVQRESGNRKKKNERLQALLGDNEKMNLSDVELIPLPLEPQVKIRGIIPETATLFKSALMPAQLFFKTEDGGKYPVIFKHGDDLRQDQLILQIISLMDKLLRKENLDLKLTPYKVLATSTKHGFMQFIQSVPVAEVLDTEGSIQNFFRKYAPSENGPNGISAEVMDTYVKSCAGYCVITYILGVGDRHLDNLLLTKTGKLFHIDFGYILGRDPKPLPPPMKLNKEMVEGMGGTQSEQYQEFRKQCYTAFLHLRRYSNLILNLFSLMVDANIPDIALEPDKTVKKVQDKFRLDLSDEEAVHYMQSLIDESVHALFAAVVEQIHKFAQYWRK
row,inhibition at 1.11 µM [%],SMILES
1,> 99,"COc1cc(F)c(S(=O)(=O)Nc2cc(-c3ccnc(NC(C)=O)c3)cnc2C)cc1F [Compound I-159, N-(5-{[(2,5-difluoro-4-methoxyphenyl)sulfonyl]amino}-6-methyl-3,4′-bipyridin-2′-yl)acetamide]"
2,> 99,"CC(=O)Nc1cc(-c2cnc(N(C)C)c(C(=O)N(C)C)c2)ccn1 [Compound I-162, 2′-acetamido-6-(dimethylamino)-N,N-dimethyl-3,4′-bipyridine-5-carboxamide]"
3,> 99,"COc1ccc(S(=O)(=O)Nc2cc(-c3ccnc(NC(C)=O)c3)cnc2C)c(F)c1 [Compound I-163, N-(5-{[(2-fluoro-4-methoxyphenyl)sulfonyl]amino}-6-methyl-3,4′-bipyridin-2′-yl)acetamide]"
4,> 99,"CC(=O)Nc1cc(-c2cnc(F)c(NS(=O)(=O)c3ccc(F)cc3F)c2)ccn1 [Compound I-164, N-(5-{[(2,4-difluorophenyl)sulfonyl]amino}-6-fluoro-3,4′-bipyridin-2′-yl)acetamide]"
5,> 99,"CC(=O)Nc1cc(-c2cnc(N)c(S(=O)(=O)Nc3ccc(F)cc3F)c2)ccn1 [Compound I-170, N-{6-amino-5-[(2,4-difluorophenyl)sulfamoyl]-3,4′-bipyridin-2′-yl}acetamide]"
6,> 99,"CC(=O)Nc1cc(-c2cnc(N(C)C)c(C(=O)N(C)c3ccc(F)cc3F)c2)ccn1 [Compound I-174, 2′-Acetamido-N-(2,4-difluorophenyl)-6-(dimethylamino)-N-methyl-[3,4′-bipyridine]-5-carboxamide]"
7,> 99,"CC(=O)Nc1cc(-c2cnc(C)c(NS(=O)(=O)c3ccc(F)cc3F)c2)c(C)cn1 [Compound I-177, N-(5-{[(2,4-difluorophenyl)sulfonyl]amino}-5′,6-dimethyl-3,4′-bipyridin-2′-yl)acetamide]"
8,> 99,"CC(=O)Nc1cc(-c2cnc(C)c(NS(=O)(=O)c3cc(C)ccc3C)c2)ccn1 [Compound I-178, N-(5-{[(2,5-dimethylphenyl)sulfonyl]amino}-6-methyl-3,4′-bipyridin-2′-yl)acetamide]"
9,> 99,"CC(=O)Nc1cc(-c2cnc(N)c(C(=O)Nc3cccc(F)c3F)c2)ccn1 [Compound I-179, 2′-acetamido-6-amino-N-(2,3-difluorophenyl)-3,4′-bipyridine-5-carboxamide]"
10,> 99,"CC(=O)Nc1cc(-c2cnc(C)c(NS(=O)(=O)c3ccc(C)cc3F)c2)ccn1 [Compound I-182, N-(5-{[(2-fluoro-4-methylphenyl)sulfonyl]amino}-6-methyl-3,4′-bipyridin-2′-yl)acetamide]"
11,> 99,"CC(=O)Nc1cc(-c2cnc(C)c(NS(=O)(=O)c3ccc(F)cc3)c2)ccn1 [Compound I-185, N-(5-{[(4-fluorophenyl)sulfonyl]amino}-6-methyl-3,4′-bipyridin-2′-yl)acetamide]"
12,98,"CC(=O)Nc1cc(-c2cncc(/C=C/C(=O)c3ccc(F)cc3)c2)ccn1 [Compound I-188, N-{5-[(1E)-3-(4-fluorophenyl)-3-oxoprop-1-en-1-yl]-3,4′-bipyridin-2′-yl}acetamide]"
13,> 99,"CC(=O)Nc1cc(-c2cnc(C)c(NC(C)=O)c2)ccn1 [Compound I-193, N,N′-(6-methyl-3,4′-bipyridine-2′,5-diyl)diacetamide]"
14,62,"CC(=O)Nc1cc(-c2cncc(C(C)=O)c2)ccn1 [Compound I-194, N-(5-acetyl-3,4′-bipyridin-2′-yl)acetamide]"
15,> 99,"COC(=O)Nc1cc(-c2cnc(C)c(NS(=O)(=O)c3ccc(F)cc3F)c2)ccn1 [Compound I-195, methyl (5-{[(2,4-difluorophenyl)sulfonyl]amino}-6-methyl-3,4′-bipyridin-2′-yl)carbamate]"
16,> 99,"CC(=O)Nc1cc(-c2cnc(N)c(S(=O)(=O)Cc3ccccc3F)c2)ccn1 [Compound I-197, N-{6-amino-5-[(2-fluorobenzyl)sulfonyl]-3,4′-bipyridin-2′-yl}acetamide]"
17,68,"CC(=O)Nc1cc(-c2cncc(C(=O)/C=C/c3ccc(F)cc3)c2)ccn1 [Compound I-198, N-{5-[(2E)-3-(4-fluorophenyl)prop-2-enoyl]-3,4′-bipyridin-2′-yl}acetamide]"

# Continued, compound first:
row,SMILES,inhibition at 1.11 µM [%]
1,"CNc1ncc(-c2ccnc(NC(C)=O)c2)cc1C(=O)NC12CC(C1)C2 [Compound I-160, 2′-acetamido-N-(bicyclo[1.1.1]pent-1-yl)-6-(methylamino)-3,4′-bipyridine-5-carboxamide]",> 99
2,"CC(=O)Nc1cc(-c2cnc(C)c(NS(=O)(=O)c3ccc(F)cc3F)c2)c(F)cn1 [Compound I-161, N-(5-{[(2,4-difluorophenyl)sulfonyl]amino}-5′-fluoro-6-methyl-3,4′-bipyridin-2′-yl)acetamide]",> 99
3,"COc1ccc(S(=O)(=O)Nc2cc(-c3ccnc(NC(C)=O)c3)cnc2C)cc1 [Compound I-165, N-(5-{[(4-methoxyphenyl)sulfonyl]amino}-6-methyl-3,4′-bipyridin-2′-yl)acetamide]",> 99
4,"CN(C)S(=O)(=O)c1cc(-c2ccnc(Nc3ncco3)c2)cnc1N [Compound I-166, 6-amino-N,N-dimethyl-2′-(1,3-oxazol-2-ylamino)-3,4′-bipyridine-5-sulfonamide]",> 99
5,"CC(=O)Nc1cc(-c2cnc(C)c(NS(C)(=O)=O)c2)ccn1 [Compound I-167, N-{6-methyl-5-[(methylsulfonyl)amino]-3,4′-bipyridin-2′-yl}acetamide]",> 99
6,"CC(=O)Nc1cc(-c2cnc(C)c(NS(=O)(=O)c3cccc(C(F)(F)F)c3)c2)ccn1 [Compound I-168, N-[6-methyl-5-({[3-(trifluoromethyl)phenyl]sulfonyl}amino)-3,4′-bipyridin-2′-yl]acetamide]",> 99
7,"CC(=O)Nc1cc(-c2cnc(N)c(C(=O)NC3CC3)c2)ccn1 [Compound I-169, 2′-acetamido-6-amino-N-cyclopropyl-3,4′-bipyridine-5-carboxamide]",> 99
8,"COC(=O)Nc1cc(-c2cnc(N)c(S(=O)(=O)N(C)C)c2)ccn1 [Compound I-171, Methyl [6-amino-5-(dimethylsulfamoyl)-3,4′-bipyridin-2′-yl]carbamate]",> 99
9,"CNc1ncc(-c2ccnc(NC(C)=O)c2)cc1S(=O)(=O)N(C(C)C)C(C)C [Compound I-173, N-[5-(diisopropylsulfamoyl)-6-(methylamino)-3,4′-bipyridin-2′-yl]acetamide]",> 99
10,"CC(=O)Nc1cc(-c2cnc(N)c(S(=O)(=O)C(C)C)c2)ccn1 [Compound I-175, N-[6-amino-5-(isopropylsulfonyl)-3,4′-bipyridin-2′-yl]acetamide]",> 99
11,"CC(=O)Nc1cc(-c2cnc3[nH]cc(S(=O)(=O)c4ccccc4)c3c2)ccn1 [Compound I-176, N-{4-[3-(phenylsulfonyl)-1H-pyrrolo[2,3-b]pyridin-5-yl]pyridin-2-yl}acetamide]",> 99
12,"COC(=O)Nc1cc(-c2cncc(C(=O)C3CC3)c2)ccn1 [Compound I-180, methyl[5-(cyclopropylcarbonyl)-3,4′-bipyridin-2′-yl]carbamate]",> 99
13,"CC(=O)Nc1cc(-c2cnc(N)c(N3CCCS3(=O)=O)c2)ccn1 [Compound I-181, N-[6-amino-5-(1,1-dioxidoisothiazolidin-2-yl)-3,4′-bipyridin-2′-yl]acetamide]",> 99
14,"CC(=O)Nc1cc(-c2cnc(N)c(S(=O)(=O)NCC3CCCCC3)c2)ccn1 [Compound I-183, N-{6-amino-5-[(cyclohexylmethyl)sulfamoyl]-3,4′-bipyridin-2′-yl}acetamide]",> 99
15,"CC(=O)Nc1cc(-c2cncc(C=O)c2)ccn1 [Compound I-184, N-(5-formyl-3,4′-bipyridin-2′-yl)acetamide]",74
16,"CC(=O)Nc1cc(-c2cnc(N)c(C(=O)NC34CC(C3)C4)c2)ccn1 [Compound I-187, 2′-acetamido-6-amino-N-(bicyclo[1.1.1]pent-1-yl)-3,4′-bipyridine-5-carboxamide]",> 99
17,"CC(=O)Nc1cc(-c2cnc3[nH]ncc3c2)ccn1 [Compound I-189, N-[4-(1H-pyrazolo[3,4-b]pyridin-5-yl)pyridin-2-yl]acetamide]",> 99
18,"CC(=O)Nc1cc(-c2cncc(S(=O)(=O)NC34CC(C3)C4)c2)ccn1 [Compound I-190, N-[5-(bicyclo[1.1.1]pent-1-ylsulfamoyl)-3,4′-bipyridin-2′-yl]acetamide]",96
19,"CC(=O)Nc1cc(-c2cc(S(C)(=O)=O)c[n+]([O-])c2)ccn1 [Compound I-191, N-{4-[5-(methylsulfonyl)-1-oxidopyridin-3-yl]pyridin-2-yl}acetamide]",77
20,"CC(=O)Nc1cc(-c2cncc(N3CCCS3(=O)=O)c2)ccn1 [Compound I-192, N-[5-(1,1-dioxidoisothiazolidin-2-yl)-3,4′-bipyridin-2′-yl]acetamide]",> 99
21,"CC(=O)Nc1cc(-c2cnc(C)c(NS(=O)(=O)c3ccc(C(F)(F)F)cc3Cl)c2)ccn1 [Compound I-196, N-[5-({[2-chloro-4-(trifluoromethyl)phenyl]sulfonyl}amino)-6-methyl-3,4′-bipyridin-2′-yl]acetamide]",> 99
22,"CC(=O)Nc1cc(-c2cnc3ccn(S(=O)(=O)C4CC4)c3c2)ccn1 [Compound I-199, N-{4-[1-(cyclopropylsulfonyl)-1H-pyrrolo[3,2-b]pyridin-6-yl]pyridin-2-yl}acetamide]",> 99
23,"CC(=O)Nc1cc(-c2cnc(N)c(C(=O)N3CCC3)c2)ccn1 [Compound I-200, N-[6-amino-5-(azetidin-1-ylcarbonyl)-3,4′-bipyridin-2′-yl]acetamide]",> 99

# Same assay, conditions: read-out: Percent Inhibition
row,SMILES,inhibition at 1.11 µM [%]
1,"CC(=O)Nc1cc(-c2cnc(N)c(S(=O)(=O)Cc3ccccc3Cl)c2)ccn1 [Compound I-172, N-{6-amino-5-[(2-chlorobenzyl)sulfonyl]-3,4′-bipyridin-2′-yl}acetamide]",> 99
2,CC(=O)Nc1cc(-c2cnc(N)c(S(=O)(=O)N(C)C)c2)c(F)cn1 [Compound I-186],> 99

# — patent US9802960B2 (MILLENNIUM PHARMACEUTICALS, INC., priority 2014, dated 2017)
